Measured values taken from patent US20110070232A1, “Combination Therapy with an Antitumor Alkaloid” (Pharma Mar, S.A., priority 2008, published 2011).
Read-outs that look alike come from different tables or passages of the source.

How the values were obtained:
[1] = tested on: LoVo (colon cancer) cell line; assay: IC50 determination, MIT (tetrazolium) assay, 72 h (Example 18); type: cell-based, human; details: 72 hours of drug exposure
Experimental: (§1) Before plating, cell cultures were trypsinized and cell number estimated using an automated flow cytometer.
(§2) Cells were harvested and seeded in 96 well microtiter plates at the appropriate cell density (5,000-10,000 cells) in 150 μL of media and incubated for 24 hours to allow the cells to attach before drug addition.
(§3) After the incubation period (72 hours), 50 μL of MIT solution was added to each microtiter well and incubated for further 8 hours at 37° C. The culture medium was then removed and 50 μl, of DMSO were added to dissolve the MIT crystals. Optical densities were read at 540 nm on spectrophotometer microplate reader.
(§4) IC50 values were calculated from an average of two to four assays for each of the test agents.

[2] = tested on: HT-29 (colon cancer) cell line; assay: as above; type: cell-based, human; details: HT-29, 72 hours of drug exposure
Experimental: as §1, §2, §3, §4

[3] = tested on: Hs746T human gastric carcinoma cell line; assay: IC50 determination, MTS assay, 72 h (Example 1); type: cell-based; details: 72 hours of drug exposure
Experimental: (§5) The human gastric carcinoma cell lines selected for this assay were the following: Hs746T, HGC-27, and AGS cell lines. Hs746T and AGS cell lines were grown in Dulbecco's modified Eagle's medium (DMEM) supplemented with 10% Fetal Bovine Serum (FBS), 1.5 g/L sodium bicarbonate, 4.5 g/L glucose and 4 mM L-glutamine. HGC-27 cell line was grown in Iscove's modified Dulbecco's medium (IMDM) supplemented with 20% FBS and 2 mM L-glutamine.
(§6) The day before plating, the cells were fed with fresh, complete growth media. On the harvest (plating) day, cells were counted by Trypan Blue exclusion staining method.
(§7) Cells were harvested and seeded in 96 well microtiter plates at 10,000 cells density in 150 μL of media and incubated for 24 hours to allow the cells to attach before drug addition. To collect reference data, the MTS assay was done on untreated cells at time 0 (after incubation of cells for 24 hours).
(§8) The cytotoxic effect was measured by the MTS Assay (Tetrazolium), which is a colorimetric method for determining the number of viable cells. After the incubation period (24 hours for the Day 0 plate and 72 hours for the Test and Control plates), 25 μL of MTS+PMS solution was added to each microtiter well and incubated for 4 hours at 37° C. Plates were then removed from incubator and placed on plate shaker for 5 minutes (covered with aluminum foil for protection from light). Optical densities were read at 490 nm on spectrophotometer plate reader.
as §4

[4] = tested on: AGS human gastric carcinoma cell line; assay: IC50 determination, MTS assay, 72 h (Example 1); type: cell-based; details: 72 hours of drug exposure
Experimental: as §5, §6, §7, §8, §4

[5] = tested on: HGC-27 human gastric carcinoma cell line; assay: IC50 determination, MTS assay, 72 h (Example 1); type: cell-based; details: 72 hours of drug exposure
Experimental: as §5, §6, §7, §8, §4

MRI-H-254 tumors = type: in vivo, mice
Experimental: Female athymic nude mice (Harlan Sprague Dawley, Madison, Wis.) were utilized for all experiments. Animals were housed in ventilated rack caging with food and water ad libitum. The mice were acclimated for at least 5 days prior to tumor implantation with tumor fragments.
Treatments were initiated on DPI 20.
(§9) Tumor size measurements were recorded twice weekly from the treatment initiation until the termination of the study.
(§10) Mean, standard deviation and standard error of the mean were determined for tumor volume for all animal groups at all assessments. Student's t test was performed on tumor volumes at each measurement day, including at the end of the study, to determine whether there were any statistically significant differences between combination treatment groups and single monotherapy treatment groups.

[6] = tested on: HCT-116 (colon cancer) cell line; assay: IC50 determination, MIT (tetrazolium) assay, 72 h (Example 18); type: cell-based, human; details: HCT-116, 72 hours of drug exposure
Experimental: HCT-116 cells were grown in McCoy's supplemented with 10% Fetal Bovine Serum (FBS), 1% penicillin/streptomycin and 2 mM L-glutamine.
as §1, §2, §3, §4

Hs746T tumors = type: in vivo, mice; details: for % T/C on day 14 / % T/C on day 19 / % T/C on day 22 / % T/C on day 26 / % T/C on day 29 / % T/C on day 32 / % T/C on day 39: PM00104 0.90 IV, DPI 14, 21, 28
Experimental: Female athymic nude mice (Harlan Sprague Dawley, Madison, Wis.) were utilized for all experiments. Animals were housed in ventilated rack caging with food and water ad libitum. The mice were acclimated for at least 5 days prior to tumor implantation with a tumor cell suspension.
The tumor model used in these studies was Hs746T cell line, which was obtained from the ATCC (Manassas, Va.).
Treatments were initiated on DPI 14.
as §9, §10

[7] = PM00104 0.90 IV, docetaxel 8 IP, oxaliplatin 4 IP mg/kg/day (G4, G6, G8, G10), DPI 20, 27, 34
[8] = PM00104 0.90 IV, docetaxel 16 IP, oxaliplatin 8 IP mg/kg/day (G2, G3, G5, G7, G9), DPI 20, 27, 34
[9] = docetaxel 8 IP, oxaliplatin 4 IP mg/kg/day (G4, G6, G8, G10)
[10] = docetaxel 16 IP, oxaliplatin 8 IP mg/kg/day (G2, G3, G5, G7, G9)

`O=C1[O][Pt]2([NH][C@@H]3CCCC[C@H]3[NH]2)[O]C1=O` [Oxaliplatin, oxaliplatin] was tested, and the IC50 [1] was 3.2 µM, the IC50 [2] was 38 µM and the IC50 [3] was 8.14 µg/mL. For the same compound, the IC50 [4] was 0.289 µg/mL, the IC50 [5] was 0.192 µg/mL and the “% T/C on day 20” value (MRI-H-254 tumors; [7]) was 94.5%. The “% T/C on day 23” value (MRI-H-254 tumors; [7]) was 118.5%, the “% T/C on day 27” value (MRI-H-254 tumors; [7]) was 113.6% and the “% T/C on day 33” value (MRI-H-254 tumors; [7]) was 107.6%. For the same compound, the “% T/C on day 36” value (MRI-H-254 tumors; [7]) was 115.1%, the “% T/C on day 40” value (MRI-H-254 tumors; [7]) was 115.0% and the “% T/C on day 48” value (MRI-H-254 tumors; [7]) was 92.4%. The “% T/C on day 20” value (MRI-H-254 tumors; [8]) was 95.1%, the “% T/C on day 23” value (MRI-H-254 tumors; [8]) was 100.9% and the “% T/C on day 27” value (MRI-H-254 tumors; [8]) was 77.2%. The “% T/C on day 30” value (MRI-H-254 tumors; [8]) was 81.7%, the “% T/C on day 33” value (MRI-H-254 tumors; [8]) was 75.0% and the “% T/C on day 36” value (MRI-H-254 tumors; [8]) was 71.1%. The “% T/C on day 40” value (MRI-H-254 tumors; [8]) was 67.5%, the “% T/C on day 48” value (MRI-H-254 tumors; [8]) was 55.9% and the “% Inhibition” value (MRI-H-254 tumors; day 20, PM00104 0.9 and oxaliplatin 4 mg/kg/day) was 5.5%. For the same compound, the “% Inhibition” value (MRI-H-254 tumors; day 20, PM00104 0.9 and oxaliplatin 8 mg/kg/day) was 4.9%, the “% Inhibition” value (MRI-H-254 tumors; day 23, PM00104 0.9 and oxaliplatin 4 mg/kg/day) was −18.5% and the “% Inhibition” value (MRI-H-254 tumors; day 23, PM00104 0.9 and oxaliplatin 8 mg/kg/day) was −0.9%. The “% Inhibition” value (MRI-H-254 tumors; day 27, PM00104 0.9 and oxaliplatin 4 mg/kg/day) was −13.6%, the “% Inhibition” value (MRI-H-254 tumors; day 27, PM00104 0.9 and oxaliplatin 8 mg/kg/day) was 22.8% and the “% Inhibition” value (MRI-H-254 tumors; day 30, PM00104 0.9 and oxaliplatin 4 mg/kg/day) was −17.1%. The “% Inhibition” value (MRI-H-254 tumors; day 30, PM00104 0.9 and oxaliplatin 8 mg/kg/day) was 18.3%, the “% Inhibition” value (MRI-H-254 tumors; day 33, PM00104 0.9 and oxaliplatin 4 mg/kg/day) was −7.6% and the “% Inhibition” value (MRI-H-254 tumors; day 33, PM00104 0.9 and oxaliplatin 8 mg/kg/day) was 25.0%. For the same compound, the “% Inhibition” value (MRI-H-254 tumors; day 36, PM00104 0.9 and oxaliplatin 4 mg/kg/day) was −15.1%, the “% Inhibition” value (MRI-H-254 tumors; day 36, PM00104 0.9 and oxaliplatin 8 mg/kg/day) was 28.9% and the “% Inhibition” value (MRI-H-254 tumors; day 40, PM00104 0.9 and oxaliplatin 4 mg/kg/day) was −15.0%. For the same compound, the “% Inhibition” value (MRI-H-254 tumors; day 40, PM00104 0.9 and oxaliplatin 8 mg/kg/day) was 32.5%, the “% Inhibition” value (MRI-H-254 tumors; day 48, PM00104 0.9 and oxaliplatin 4 mg/kg/day) was 7.6% and the “% Inhibition” value (MRI-H-254 tumors; day 48, PM00104 0.9 and oxaliplatin 8 mg/kg/day) was 44.1%. The IC50 [6] was 140 µM, the “% T/C on day 14” value (Hs746T tumors; [9]) was 99.9% and the “% T/C on day 19” value (Hs746T tumors; [9]) was 79.9%. For the same compound, the “% T/C on day 22” value (Hs746T tumors; [9]) was 83.8%, the “% T/C on day 26” value (Hs746T tumors; [9]) was 78.6% and the “% T/C on day 29” value (Hs746T tumors; [9]) was 84.2%. The “% T/C on day 32” value (Hs746T tumors; [9]) was 87.5%, the “% T/C on day 39” value (Hs746T tumors; [9]) was 108.4% and the “% T/C on day 14” value (Hs746T tumors; [10]) was 99.6%. The “% T/C on day 19” value (Hs746T tumors; [10]) was 83.5%, the “% T/C on day 22” value (Hs746T tumors; [10]) was 84.9% and the “% T/C on day 26” value (Hs746T tumors; [10]) was 89.1%. The “% T/C on day 29” value (Hs746T tumors; [10]) was 84.5%, the “% T/C on day 32” value (Hs746T tumors; [10]) was 91.2% and the “% T/C on day 39” value (Hs746T tumors; [10]) was 102.9%. The “% Inhibition” value (Hs746T tumors; day 14, PM00104 0.9 and oxaliplatin 4 mg/kg/day) was 0.1%, the “% Inhibition” value (Hs746T tumors; day 14, PM00104 0.9 and oxaliplatin 8 mg/kg/day) was 0.4% and the “% Inhibition” value (Hs746T tumors; day 19, PM00104 0.9 and oxaliplatin 4 mg/kg/day) was 20.1%. For the same compound, the “% Inhibition” value (Hs746T tumors; day 19, PM00104 0.9 and oxaliplatin 8 mg/kg/day) was 16.5%, the “% Inhibition” value (Hs746T tumors; day 22, PM00104 0.9 and oxaliplatin 4 mg/kg/day) was 16.2% and the “% Inhibition” value (Hs746T tumors; day 22, PM00104 0.9 and oxaliplatin 8 mg/kg/day) was 15.1%. For the same compound, the “% Inhibition” value (Hs746T tumors; day 26, PM00104 0.9 and oxaliplatin 4 mg/kg/day) was 21.4%, the “% Inhibition” value (Hs746T tumors; day 26, PM00104 0.9 and oxaliplatin 8 mg/kg/day) was 10.9% and the “% Inhibition” value (Hs746T tumors; day 29, PM00104 0.9 and oxaliplatin 4 mg/kg/day) was 15.8%. For the same compound, the “% Inhibition” value (Hs746T tumors; day 29, PM00104 0.9 and oxaliplatin 8 mg/kg/day) was 15.5%, the “% Inhibition” value (Hs746T tumors; day 32, PM00104 0.9 and oxaliplatin 4 mg/kg/day) was 12.5% and the “% Inhibition” value (Hs746T tumors; day 32, PM00104 0.9 and oxaliplatin 8 mg/kg/day) was 8.8%. For the same compound, the “% Inhibition” value (Hs746T tumors; day 39, PM00104 0.9 and oxaliplatin 4 mg/kg/day) was −8.4% and the “% Inhibition” value (Hs746T tumors; day 39, PM00104 0.9 and oxaliplatin 8 mg/kg/day) was −2.9%.
